Measured values taken from patent publication US20190150445A1, “SUBSTITUTED HALOGEN(THIO)ACYL COMPOUNDS” (priority 2016, published 2019).
Like-named read-outs stand apart in the source and are kept apart here.

What was measured:
LogP-Value (HCOOH) = type: physicochemical; conditions: for chromatographic logP: HCOOH (formic acid)
Nezara viridula = Nezara viridula spray test (solvent 52.5 parts acetone, 7 parts dimethylformamide); type: in vivo; conditions: in Hordeum vulgare, 96 h
Description: Nezara viridula—spray test
To produce a suitable preparation of active compound, 1 part by weight of active compound is mixed with the stated amount of solvent, and the concentrate is diluted with water, containing an emulsifier concentration of 1000 ppm, to the desired concentration Ammonium salt and/or penetration enhancer in a dosage of 1000 ppm are added to the desired concentration if necessary.
Barley plants (Hordeum vulgare) infested with larvae of the southern green stink bug (Nezara viridula) are sprayed with a test solution containing the desired concentration of the active ingredient.
After 4 days mortality in % is determined. 100% means all the stink bugs have been killed; 0% means none of the stink bugs have been killed.

Lucilia cuprina = Lucilia cuprina test (LUCICU); type: in vivo; conditions: 48 h
Description: Lucilia cuprina—test (LUCICU)
(§1) Solvent: dimethyl sulfoxide
10 mg active compound are dissolved in 0,5 ml Dimethylsulfoxid. Serial dilutions are made to obtain the desired rates.
Approximately 20 1st instar larvae of the Australian sheep blowfly (Lucilia cuprina) are transferred into a test tube containing minced horse meat and compound solution of the desired concentration.
After 2 days mortality in % is determined. 100% means all the larvae have been killed; 0% means none of the larvae have been killed.

Ctenocephalides felis [1] = test: Ctenocephalides felis in-vitro contact test, adult cat flea; type: in vivo; conditions: 5 μg/cm^2 (=500 g/ha), after 48 hours
Description: Ctenocephalides felis—in-vitro contact tests adult cat flea
9 mg compound is solved in 1 ml acetone and diluted with acetone to the desired concentration. 250 μl of the test solution is filled in 25ml glass test tubes and homogeneously distributed on the inner walls by rotation and tilting on a shaking device (2 h at 30 rpm). With a compound concentration of 900 ppm, an inner surface of 44,7 cm^2 and a homogeneous distribution, a dose of 5 μg/cm^2 is achieved.
After the solvent has evaporated, each test tube is filled with 5-10 adult cat fleas (Ctenocephalides felis), closed with a perforated lid and incubated in a lying position at room temperature and relative humidity. After 48 hours efficacy is determined. The fleas are patted on the ground of the tubes and are incubated on a heating plate at 45-50° C. for at most 5 minutes Immotile or uncoordinated moving fleas, which are not able to escape the heat by climbing upwards, are marked as dead or moribund.
An efficacy of 100% means all fleas are dead or moribund; 0% means no fleas are dead or moribund.

Nilaparvata lugens [2] = test: Nilaparvata lugens spray test (solvent 52.5 parts acetone, 7 parts dimethylformamide); type: in vivo; conditions: in Oryza sativa, 96 h
Description: (§2) Nilaparvata Wens—spray test
(§3) To produce a suitable preparation of active compound, 1 part by weight of active compound is mixed with the stated amount of solvents and is diluted with water, containing an emulsifier concentration of 1000 ppm, to the desired concentration. Further test concentrations are prepared by dilution with emulsifier containing water Ammonium salt and/or penetration enhancer in a dosage of 1000 ppm are added to the desired concentration if necessary.
Rice plants (Oryza sativa) are treated by being sprayed with the desired concentration of the active compound and are infested with larvae of the brown planthopper (Nilaparvata lugens).
(§4) After 4 days mortality in % is determined. 100% means all planthoppers have been killed and 0% means none of the planthoppers have been killed.

Diabrotica balteata = Diabrotica balteata spray test; type: in vivo; conditions: 160 gg/well, larvae on germinated wheat seeds, after 7 days
Description: Diabrotica balteata—spray test
Further test concentrations are prepared by dilution with emulsifier containing water.
Soaked wheat seeds (Trificum aestivum) are placed in a multiple well plate filled with agar and some water and are incubated for 1 day to germinate (5 seeds per well). The germinated wheat seeds are sprayed with a test solution containing the desired concentration of the active ingredient. Afterwards each unit is infected with 10-20 larvae of the banded cucumber beetle (Diabrofica balteata).
After 7 days efficacy in % is determined.

Musca domestica = Musca domestica test (MUSCDO); type: in vivo; conditions: 48 h
Description: Musca domestica—test (MUSCDO)
as §1
To produce a suitable preparation of active compound, 10 mg of active compound are dissolved in 0.5 ml solvent, and the concentrate is diluted with water to the desired concentration.
10 adult house flies (Musca domestica) are transferred into a container, containing a sponge soaked with a mixture of sugar solution and compound solution of the desired concentration.
After 2 days mortality in % is determined. 100% means all the flies have been killed; 0% means none of the flies have been killed.

Myzus persicae [3] = test: Myzus persicae spray test; type: in vivo; conditions: in Brassica rapa, foliar
Description: Myzus persicae—spray test
as §3, with “water.” for “water Ammonium salt and/or penetration enhancer in a dosage of 1000 ppm are added to the desired concentration if necessary.”
Chinese cabbage (Brassica pekinensis) leaf disks infected with all instars of the green peach aphid (Myzus persicae), are sprayed with a preparation of the active ingredient of the desired concentration.
After 5-6 days mortality in % is determined. 100% means all aphids have been killed and 0% means none of the aphids have been killed.

Ctenocephalides felis [4] = test: Ctenocephalides felis oral test (CTECFE); type: in vivo; conditions: 48 h, 100 ppm in cattle blood, adult unfed cat fleas, after 2 days
Description: Ctenocephalides felis—oral test (CTECFE)
as §1
To produce a suitable preparation of active compound, 10 mg of active compound are dissolved in 0.5 ml solvent, and the concentrate is diluted with cattle blood to the desired concentration.
Approximately 20 adult unfed cat fleas (Ctenocephalides felis) are placed in flea chambers. The blood chamber, sealed with parafilm on the bottom, are filled with cattle blood supplied with compound solution and placed on the gauze covered top of the flea chamber, so that the fleas are able to suck the blood. The blood chamber is heated to 37° C. whereas the flea chamber is kept at room temperature.
After 2 days mortality in % is determined. 100% means all the fleas have been killed; 0% means none of the fleas have been killed.

Myzus persicae [5] = test: Myzus persicae oral test; type: in vivo; conditions: 120 h
Description: To produce a suitable preparation of active compound, 1 part by weight of active compound is mixed with the stated amount of solvent, and the concentrate is diluted with water to the desired concentration.
50 μl compound solution is filled in microtiter plates and 150 μl IPL41 insect medium (33% +15% sugar) is added to obtain a total volume of […] per well. Afterwards the plates are sealed with parafilm through which a mixed population of the green peach aphid (Myzus persicae) can suck on the compound preparation.
After 5 days mortality in % is determined. 100% means all aphids have been killed and 0% means none of the aphids have been killed.

Nilaparvata lugens [6] = test: Nilaparvata lugens spray test (solvent 78.0 parts acetone, 1.5 parts dimethylformamide); type: in vivo; conditions: in Oryza sativa, 96 h
Description: as §2
as §3, with “water.” for “water Ammonium salt and/or penetration enhancer in a dosage of 1000 ppm are added to the desired concentration if necessary.”
Rice plants (Oryza sativa) are sprayed with a preparation of the active ingredient of the desired concentration and the plants are infested with the brown planthopper (Nilaparvata lugens).
as §4

Phaedon cochleariae = Phaedon cochleariae spray test; type: in vivo; conditions: foliar, 168 h, larvae on Chinese cabbage leaf disks, after 7 days
Description: Phaedon cochleariae—spray test
as §3, with “water.” for “water Ammonium salt and/or penetration enhancer in a dosage of 1000 ppm are added to the desired concentration if necessary.”
Chinese cabbage (Brassica pekinensis) leaf disks are sprayed with a preparation of the active ingredient of the desired concentration. Once dry, the leaf disks are infested with mustard beetle larvae (Phaedon cochleariae).
After 7 days mortality in % is determined. 100% means all beetle larvae have been killed and 0% means none of the beetle larvae have been killed.

[7] = 100 ppm, 1st instar larvae, after 2 days, read-out: mortality

Structure (SMILES)	LogP-Value (HCOOH) (LogP-Value (HCOOH))	chromatographic logP (LogP-Value (HCOOH))	mortality at 500 g/ha (Nezara viridula) [%]	mortality at 100 ppm (Lucilia cuprina) [%]	efficacy (fleas dead or moribund) (Ctenocephalides felis [1]) [%]	mortality at 500 g/ha (Nilaparvata lugens [2]) [%]	efficacy (seedlings grown up) (Diabrotica balteata) [%]	mortality at 20 ppm (Musca domestica) [%]	mortality at 100 g/ha (Myzus persicae [3]) [%]	mortality at 100 ppm (Lucilia cuprina; [7]) [%]	mortality at 100 ppm (Ctenocephalides felis [4]) [%]	mortality at 4 ppm (Myzus persicae [5]) [%]	mortality at 20 ppm (Myzus persicae [5]) [%]	mortality at 500 g/ha (Nilaparvata lugens [6]) [%]	mortality at 500 g/ha (Phaedon cochleariae) [%]
O=C(/C=C1\SCCN1Cc1cnc(Cl)c(F)c1)C(F)(F)F [Example I-1]	2,48	2.47	100	100	100	100	100	90	100	–	–	–	–	–	–
O=C(/C=C1\NCCN1Cc1cnc(Cl)c(F)c1)C(F)(F)F [Example I-2, 3-[1-[(6-Chloro-5-fluoro-3-pyridinyl)methyl]-2-imidazolidinylidene]-1,1,1-trifluoro-2-propanone]	–	2.19	90	–	100	100	100	100	100	100	100	–	–	–	–
Fc1cc(CN2CCS/C2=C\C(=S)C(F)(F)F)cnc1Cl [Example I-3, 3-[3-[(6-Chloro-5-fluoro-3-pyridinyl)methyl]-2-thiazolidinylidene]-1,1,1-trifluoro-2-propanthione]	–	1.2	–	100	–	–	100	–	–	–	–	100	100	100	–
Fc1cc(CN2CCN/C2=C\C(=S)C(F)(F)F)cnc1Cl [Example I-4, 3-[1-[(6-Chloro-5-fluoro-3-pyridinyl)methyl]-2-imidazolidinylidene]-1,1,1-trifluoro-2-propanthione]	2,61	2.59	–	–	100	–	100	–	–	100	95	100	–	100	83
